Measured values taken from patent publication US9718738B2 (priority 2014, dated 2017).

Columns and labels:
grain corn = details: in vivo
[1] = test system: long white bunching onions; details: in vivo

## urea
Grain corn
  grain yield: 180.5 bu/acre
[1]
  plant height after 6 weeks: performing poorer than no nitrogen fertilizer at all
